Reference: patent US9090605B2, “Substituted 5-,6- and 7-membered heterocycles, medicaments containing such compounds, and their use” (Vitae Pharmaceuticals, Inc., priority 2010, dated 2015)

What follows are molecules tested against 11β-HSD1 (Homo sapiens, UniProt P28845) (assay: In vitro inhibition of 11β-HSD1, HTRF detection of cortisol generated by human liver microsomes (biological test example 1)). Conditions: 1 hour at 37° C., cortisone 80 nM, NADPH 200 μM, read-out: IC50, inhibitory activity on 11β-HSD 1.
Assay type: biochemical
Design: detecting cortisol generated from cortisterone by human liver microsomes; from tissue; host or cells: human liver microsomes
Experimental: Briefly, compounds were incubated for 1 hour at 37° C. in Tris buffer (20 mM tris, 5 mM EDTA, pH 6.0) containing NADPH (200 μM) and cortisone (80 nM). Cortisol generated in the reaction was then detected with a competitive immunoassay, involving two HTRF conjugates: cortisol linked to XL665 and anti-cortisol antibody labeled with Europium cryptate. The incubation period for detection reaction was typically 2 hours. The amount of cortisol was determined by reading the time-resolved fluorescence of the wells (Ex 320/75 nm; Em 615/8.5 nm and 665/7.5 nm). The ratio of the two emission signals was then calculated (Em665*10000/Em615). […] Each assay also contained a calibration curve with cortisol to transform the fluorescent data into cortisol concentrations. Percent inhibition (% CTL) of each compound was determined relative to the carbenoxolone signal and IC50 curves were generated.

Sequence of 11β-HSD1 (P28845 whole entry): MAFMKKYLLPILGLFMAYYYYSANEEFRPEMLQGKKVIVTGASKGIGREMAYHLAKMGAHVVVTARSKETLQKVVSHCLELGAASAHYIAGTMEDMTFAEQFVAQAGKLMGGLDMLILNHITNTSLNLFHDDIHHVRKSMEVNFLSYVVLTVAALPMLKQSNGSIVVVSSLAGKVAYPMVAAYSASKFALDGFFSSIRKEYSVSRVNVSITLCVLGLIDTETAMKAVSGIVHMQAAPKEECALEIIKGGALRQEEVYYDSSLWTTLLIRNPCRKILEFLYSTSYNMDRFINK

SMILES	IC50 [µM]
C[C@@H](c1ccc(-c2cccc(C3(S(C)(=O)=O)CC3)n2)cc1)N1CC[C@](CC(C)(C)O)(c2ccccc2)OC1=O [Example 20, (S)-6-(2-Hydroxy-2-methyl-propyl)-3-((S)-1-{4-[6-(1-methanesulfonyl-cyclopropyl)-pyridin-2-yl]-phenyl}-ethyl)-6-phenyl-[1,3]oxazinan-2-one]	0.073
C[C@@H](c1ccc(-c2cccc(C3(C(N)=O)CC3)n2)cc1)N1CC[C@](CC(C)(C)O)(c2ccccc2)OC1=O [Example 22, 1-[6-(4-{(S)-1-[(S)-6-(2-Hydroxy-2-methyl-propyl)-2-oxo-6-phenyl-[1,3]oxazinan-3-yl]-ethyl}-phenyl)-pyridin-2-yl]-cyclopropanecarboxylic acid amide]	0.086
CNC(=O)C1(c2cccc(-c3ccc([C@H](C)N4CC[C@](CC(C)(C)O)(c5ccccc5)OC4=O)cc3)n2)CC1 [Example 23, 1-[6-(4-{(S)-1-[(S)-6-(2-Hydroxy-2-methyl-propyl)-2-oxo-6-phenyl-[1,3]oxazinan-3-yl]-ethyl}-phenyl)-pyridin-2-yl]-cyclopropanecarboxylic acid methylamide]	0.115
C[C@@H](c1ccc(-c2cccc(C3(C(=O)N(C)C)CC3)n2)cc1)N1CC[C@](CC(C)(C)O)(c2ccccc2)OC1=O [Example 24, 1-[6-(4-{(S)-1-[(S)-6-(2-Hydroxy-2-methyl-propyl)-2-oxo-6-phenyl-[1,3]oxazinan-3-yl]-ethyl}-phenyl)-pyridin-2-yl]-cyclopropanecarboxylic acid dimethylamide]	0.053
CCOC(=O)C1(c2cc(-c3ccc([C@H](C)N4CC[C@](CC(C)(C)O)(c5ccccc5)OC4=O)cc3)ccn2)CC1 [Example 44, 1-[4-(4-{(S)-1-[(S)-6-(2-Hydroxy-2-methyl-propyl)-2-oxo-6-phenyl-[1,3]oxazinan-3-yl]-ethyl}-phenyl)-pyridin-2-yl]-cyclopropanecarboxylic acid ethyl ester]	0.181
C[C@@H](c1ccc(-c2ccnc(C3(C(=O)O)CC3)c2)cc1)N1CC[C@](CC(C)(C)O)(c2ccccc2)OC1=O [Example 45, 1-[4-(4-{(S)-1-[(S)-6-(2-Hydroxy-2-methyl-propyl)-2-oxo-6-phenyl-[1,3]oxazinan-3-yl]-ethyl}-phenyl)-pyridin-2-yl]-cyclopropanecarboxylic acid]	0.186
C[C@@H](c1ccc(-c2ccnc(C3(C(N)=O)CC3)c2)cc1)N1CC[C@](CC(C)(C)O)(c2ccccc2)OC1=O [Example 46, 1-[4-(4-{(S)-1-[(S)-6-(2-Hydroxy-2-methyl-propyl)-2-oxo-6-phenyl-[1,3]oxazinan-3-yl]-ethyl}-phenyl)-pyridin-2-yl]-cyclopropanecarboxylic acid amide]	0.056
CNC(=O)C1(c2cc(-c3ccc([C@H](C)N4CC[C@](CC(C)(C)O)(c5ccccc5)OC4=O)cc3)ccn2)CC1 [Example 47, 1-[4-(4-{(S)-1-[(S)-6-(2-Hydroxy-2-methyl-propyl)-2-oxo-6-phenyl-[1,3]oxazinan-3-yl]-ethyl}-phenyl)-pyridin-2-yl]-cyclopropanecarboxylic acid methylamide]	0.065
C[C@@H](c1ccc(-c2ccnc(C3(C(=O)N(C)C)CC3)c2)cc1)N1CC[C@](CC(C)(C)O)(c2ccccc2)OC1=O [Example 48, 1-[4-(4-{(S)-1-[(S)-6-(2-Hydroxy-2-methyl-propyl)-2-oxo-6-phenyl-[1,3]oxazinan-3-yl]-ethyl}-phenyl)-pyridin-2-yl]-cyclopropanecarboxylic acid dimethylamide]	0.047
C[C@@H](c1ccc(-c2ccc(N3CCC[C@@H]3C(N)=O)nn2)cc1)N1CC[C@](CC(C)(C)O)(c2ccccc2)OC1=O [Example 55, (R)-1-[6-(4-{(S)-1-[(S)-6-(2-Hydroxy-2-methyl-propyl)-2-oxo-6-phenyl-[1,3]oxazinan-3-yl]-ethyl}-phenyl)-pyridazin-3-yl]-pyrrolidine-2-carboxylic acid amide]	0.087
C[C@@H](c1ccc(-c2ccc(C3(O)CCN(C)C3=O)nc2)cc1)N1CC[C@](CC(C)(C)O)(c2ccccc2)OC1=O (stereo partly drawn) [Example 56, 3-((S)-1-{4-[6-(3-Hydroxy-1-methyl-2-oxo-pyrrolidin-3-yl)-pyridin-3-yl]-phenyl}-ethyl)-(S)-6-(2-hydroxy-2-methyl-propyl)-6-phenyl-[1,3]oxazinan-2-one]	0.059

Continued, values first:

IC50 [µM]	SMILES
0.052	C[C@@H](c1ccc(-c2ccnc(C3(S(C)(=O)=O)CC3)c2)cc1)N1CC[C@](CC(C)(C)O)(c2ccccc2)OC1=O [Example 21, (S)-6-(2-Hydroxy-2-methyl-propyl)-3-((S)-1-{4-[2-(1-methanesulfonyl-cyclopropyl)-pyridin-4-yl]-phenyl}-ethyl)-6-phenyl-[1,3]oxazinan-2-one]
0.084	C[C@@H](c1ccc(-c2ccc(C3(S(C)(=O)=O)CC3)cn2)cc1)N1CC[C@](CC(C)(C)O)(c2ccccc2)OC1=O [Example 25, (S)-6-(2-Hydroxy-2-methyl-propyl)-3-((S)-1-{4-[5-(1-methanesulfonyl-cyclopropyl)-pyridin-2-yl]-phenyl}-ethyl)-6-phenyl-[1,3]oxazinan-2-one]
0.056	C[C@@H](c1ccc(-c2ccc(C3(C(N)=O)CCCC3)nc2)cc1)N1CC[C@](CC(C)(C)O)(c2ccccc2)OC1=O [Example 42, 1-[5-(4-{(S)-1-[(S)-6-(2-Hydroxy-2-methyl-propyl)-2-oxo-6-phenyl-[1,3]oxazinan-3-yl]-ethyl}-phenyl)-pyridin-2-yl]-cyclopentanecarboxylic acid amide]
0.067	C[C@@H](c1ccc(-c2ccc(C3(C(N)=O)CCCCC3)nc2)cc1)N1CC[C@](CC(C)(C)O)(c2ccccc2)OC1=O [Example 43, 1-[5-(4-{(S)-1-[(S)-6-(2-Hydroxy-2-methyl-propyl)-2-oxo-6-phenyl-[1,3]oxazinan-3-yl]-ethyl}-phenyl)-pyridin-2-yl]-cyclohexanecarboxylic acid amide]
0.073	C[C@@H](c1ccc(-c2ccc(C3(C(N)=O)CCOCC3)nc2)cc1)N1CC[C@](CC(C)(C)O)(c2ccccc2)OC1=O [Example 50, 4-[5-(4-{(S)-1-[(S)-6-(2-Hydroxy-2-methyl-propyl)-2-oxo-6-phenyl-[1,3]oxazinan-3-yl]-ethyl}-phenyl)-pyridin-2-yl]-tetrahydro-pyran-4-carboxylic acid amide]
0.08	C[C@@H](c1ccc(-c2ccc(C3(C(N)=O)CCC3)nc2)cc1)N1CC[C@](CC(C)(C)O)(c2ccccc2)OC1=O [Example 51, 1-[5-(4-{(S)-1-[(S)-6-(2-Hydroxy-2-methyl-propyl)-2-oxo-6-phenyl-[1,3]oxazinan-3-yl]-ethyl}-phenyl)-pyridin-2-yl]-cyclobutanecarboxylic acid amide]
0.042	C[C@@H](c1ccc(-c2ccc(C3CCN(C)C3=O)nc2)cc1)N1CC[C@](CC(C)(C)O)(c2ccccc2)OC1=O (stereo partly drawn) [Example 52, (S)-6-(2-Hydroxy-2-methyl-propyl)-3-((S)-1-{4-[6-(1-methyl-2-oxo-pyrrolidin-3-yl)-pyridin-3-yl]-phenyl}-ethyl)-6-phenyl-[1,3]oxazinan-2-one]
0.043	C[C@@H](c1ccc(-c2ccc(N3CCC[C@@H]3C(N)=O)nc2)cc1)N1CC[C@](CC(C)(C)O)(c2ccccc2)OC1=O [Example 53, (R)-1-[5-(4-{(S)-1-[(S)-6-(2-Hydroxy-2-methyl-propyl)-2-oxo-6-phenyl-[1,3]oxazinan-3-yl]-ethyl}-phenyl)-pyridin-2-yl]-pyrrolidine-2-carboxylic acid amide]
0.03	C[C@@H](c1ccc(-c2ccc(N3CCC[C@H]3C(N)=O)nc2)cc1)N1CC[C@](CC(C)(C)O)(c2ccccc2)OC1=O [Example 54, (S)-1-[5-(4-{(S)-1-[(S)-6-(2-Hydroxy-2-methyl-propyl)-2-oxo-6-phenyl-[1,3]oxazinan-3-yl]-ethyl}-phenyl)-pyridin-2-yl]-pyrrolidine-2-carboxylic acid amide]
0.029	C[C@@H](c1ccc(-c2ccc(C3(C)CCN(C)C3=O)nc2)cc1)N1CC[C@](CC(C)(C)O)(c2ccccc2)OC1=O (stereo partly drawn) [Example 57, 3-((S)-1-{4-[6-(1,3-Dimethyl-2-oxo-pyrrolidin-3-yl)-pyridin-3-yl]-phenyl}-ethyl)-(S)-6-(2-hydroxy-2-methyl-propyl)-6-phenyl-[1,3]oxazinan-2-one]
